Measurements taken from ChEMBL document CHEMBL3991601, “The target landscape of clinical kinase drugs” (Science, 2017).
The source made the active and inactive calls.

Assays:
[1] = target: 5'-AMP-activated protein kinase subunit gamma-2 (Homo sapiens, UniProt Q9UGJ0)
[2] = target: T1, General transcription and DNA repair factor IIH helicase subunit XPD (Homo sapiens, UniProt P18074)
T1 sequence (P18074 whole entry): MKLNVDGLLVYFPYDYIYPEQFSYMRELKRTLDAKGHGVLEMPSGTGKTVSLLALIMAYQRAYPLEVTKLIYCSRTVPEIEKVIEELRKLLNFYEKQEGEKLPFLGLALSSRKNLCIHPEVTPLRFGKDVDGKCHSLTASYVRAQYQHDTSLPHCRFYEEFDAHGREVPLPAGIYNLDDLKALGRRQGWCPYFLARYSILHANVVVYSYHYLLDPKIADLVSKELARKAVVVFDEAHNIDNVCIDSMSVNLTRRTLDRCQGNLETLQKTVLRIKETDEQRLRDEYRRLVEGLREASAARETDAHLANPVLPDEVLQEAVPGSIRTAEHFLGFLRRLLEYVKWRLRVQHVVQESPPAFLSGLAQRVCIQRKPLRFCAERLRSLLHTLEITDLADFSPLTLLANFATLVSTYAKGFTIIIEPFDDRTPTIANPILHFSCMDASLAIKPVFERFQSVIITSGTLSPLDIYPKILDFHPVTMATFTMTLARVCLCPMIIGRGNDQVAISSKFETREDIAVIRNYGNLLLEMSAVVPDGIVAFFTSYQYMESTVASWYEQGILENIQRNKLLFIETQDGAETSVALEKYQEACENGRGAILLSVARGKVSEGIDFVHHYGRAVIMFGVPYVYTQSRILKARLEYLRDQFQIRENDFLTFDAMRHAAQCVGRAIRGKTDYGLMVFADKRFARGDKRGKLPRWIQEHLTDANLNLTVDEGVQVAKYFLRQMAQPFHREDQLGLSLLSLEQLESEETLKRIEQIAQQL

[3] = target: Cyclin-dependent kinase 10 (Homo sapiens, UniProt Q15131)
[4] = target: Tyrosine-protein kinase Fgr (Homo sapiens, UniProt P09769)
[5] = target: MAP kinase-activated protein kinase 3 (Homo sapiens, UniProt Q16644)
Chain of MAP kinase-activated protein kinase 3 (Q16644 whole entry): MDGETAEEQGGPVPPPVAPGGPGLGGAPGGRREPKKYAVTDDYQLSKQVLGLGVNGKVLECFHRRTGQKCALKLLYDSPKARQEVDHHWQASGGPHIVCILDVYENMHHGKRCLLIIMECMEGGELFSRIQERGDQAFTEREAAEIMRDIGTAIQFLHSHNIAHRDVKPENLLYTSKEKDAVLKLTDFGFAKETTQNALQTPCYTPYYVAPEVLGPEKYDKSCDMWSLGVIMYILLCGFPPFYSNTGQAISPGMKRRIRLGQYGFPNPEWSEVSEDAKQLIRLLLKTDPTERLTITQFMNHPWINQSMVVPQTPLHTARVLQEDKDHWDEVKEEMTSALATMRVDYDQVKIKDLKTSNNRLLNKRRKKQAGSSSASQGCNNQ

[6] = target: Serine/threonine-protein kinase 38 (Homo sapiens, UniProt Q15208)
Chain of Serine/threonine-protein kinase 38 (Q15208 whole entry): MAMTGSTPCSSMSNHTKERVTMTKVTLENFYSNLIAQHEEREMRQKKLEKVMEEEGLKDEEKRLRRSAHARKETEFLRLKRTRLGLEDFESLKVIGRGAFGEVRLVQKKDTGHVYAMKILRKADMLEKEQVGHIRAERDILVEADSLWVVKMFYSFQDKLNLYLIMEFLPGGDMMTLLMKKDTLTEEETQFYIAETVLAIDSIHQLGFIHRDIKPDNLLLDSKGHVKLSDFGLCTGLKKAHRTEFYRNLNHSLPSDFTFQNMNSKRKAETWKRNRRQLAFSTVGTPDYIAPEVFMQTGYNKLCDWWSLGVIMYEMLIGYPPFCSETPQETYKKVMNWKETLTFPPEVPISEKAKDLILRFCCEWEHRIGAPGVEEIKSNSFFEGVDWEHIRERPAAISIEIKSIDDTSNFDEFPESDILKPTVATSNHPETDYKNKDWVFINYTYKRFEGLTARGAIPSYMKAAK

[7] = target: ALK tyrosine kinase receptor (Homo sapiens, UniProt Q9UM73); format: subcellular, K-562, COLO 205, SK-N-BE(2) and MV-4-11, Cell lysate; settings: read-out: Kd apparent
Chain of ALK tyrosine kinase receptor (Q9UM73 whole entry): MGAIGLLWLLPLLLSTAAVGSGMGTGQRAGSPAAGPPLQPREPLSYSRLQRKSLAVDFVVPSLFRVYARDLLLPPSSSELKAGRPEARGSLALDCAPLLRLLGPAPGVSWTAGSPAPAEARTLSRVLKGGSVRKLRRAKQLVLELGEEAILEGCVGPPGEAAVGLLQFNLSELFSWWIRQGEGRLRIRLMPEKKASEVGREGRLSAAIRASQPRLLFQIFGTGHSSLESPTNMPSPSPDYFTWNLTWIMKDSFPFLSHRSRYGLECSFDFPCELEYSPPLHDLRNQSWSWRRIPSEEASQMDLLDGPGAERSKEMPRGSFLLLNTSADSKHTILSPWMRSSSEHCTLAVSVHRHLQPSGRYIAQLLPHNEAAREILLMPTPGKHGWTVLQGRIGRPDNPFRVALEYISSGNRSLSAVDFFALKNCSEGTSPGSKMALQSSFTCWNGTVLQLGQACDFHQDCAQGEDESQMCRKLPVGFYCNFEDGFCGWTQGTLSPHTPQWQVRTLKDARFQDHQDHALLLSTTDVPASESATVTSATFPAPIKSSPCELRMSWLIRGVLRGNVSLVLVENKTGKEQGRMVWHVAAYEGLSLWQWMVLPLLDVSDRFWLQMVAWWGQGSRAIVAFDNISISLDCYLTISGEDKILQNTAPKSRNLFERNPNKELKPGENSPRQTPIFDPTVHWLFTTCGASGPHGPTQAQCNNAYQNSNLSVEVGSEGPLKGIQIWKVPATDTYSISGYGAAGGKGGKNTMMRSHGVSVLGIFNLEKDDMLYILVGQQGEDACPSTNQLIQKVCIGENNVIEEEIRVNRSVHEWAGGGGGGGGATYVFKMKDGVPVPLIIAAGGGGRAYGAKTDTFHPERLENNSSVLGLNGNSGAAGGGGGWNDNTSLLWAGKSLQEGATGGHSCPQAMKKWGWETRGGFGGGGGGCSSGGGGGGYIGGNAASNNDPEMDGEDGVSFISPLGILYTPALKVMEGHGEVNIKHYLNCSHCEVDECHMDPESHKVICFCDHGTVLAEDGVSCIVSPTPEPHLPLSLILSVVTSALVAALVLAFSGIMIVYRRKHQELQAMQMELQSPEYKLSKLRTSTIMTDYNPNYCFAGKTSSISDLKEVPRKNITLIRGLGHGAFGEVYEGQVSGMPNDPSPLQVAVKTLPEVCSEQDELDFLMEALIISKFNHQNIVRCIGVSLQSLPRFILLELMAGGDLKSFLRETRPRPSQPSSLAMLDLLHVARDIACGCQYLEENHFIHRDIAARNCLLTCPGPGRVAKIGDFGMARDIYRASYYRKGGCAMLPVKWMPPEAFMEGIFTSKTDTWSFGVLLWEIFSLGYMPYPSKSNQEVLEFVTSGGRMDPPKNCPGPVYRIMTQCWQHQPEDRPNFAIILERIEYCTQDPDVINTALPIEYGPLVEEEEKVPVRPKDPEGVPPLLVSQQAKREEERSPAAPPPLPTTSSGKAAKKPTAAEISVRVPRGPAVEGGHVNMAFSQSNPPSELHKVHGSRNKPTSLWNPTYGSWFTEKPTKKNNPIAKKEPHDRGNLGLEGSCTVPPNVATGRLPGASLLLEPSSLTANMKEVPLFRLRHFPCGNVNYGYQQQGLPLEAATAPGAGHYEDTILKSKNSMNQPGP

[8] = target: T2, Tyrosine-protein kinase Mer (Homo sapiens, UniProt Q12866)
T2 sequence (Q12866 whole entry): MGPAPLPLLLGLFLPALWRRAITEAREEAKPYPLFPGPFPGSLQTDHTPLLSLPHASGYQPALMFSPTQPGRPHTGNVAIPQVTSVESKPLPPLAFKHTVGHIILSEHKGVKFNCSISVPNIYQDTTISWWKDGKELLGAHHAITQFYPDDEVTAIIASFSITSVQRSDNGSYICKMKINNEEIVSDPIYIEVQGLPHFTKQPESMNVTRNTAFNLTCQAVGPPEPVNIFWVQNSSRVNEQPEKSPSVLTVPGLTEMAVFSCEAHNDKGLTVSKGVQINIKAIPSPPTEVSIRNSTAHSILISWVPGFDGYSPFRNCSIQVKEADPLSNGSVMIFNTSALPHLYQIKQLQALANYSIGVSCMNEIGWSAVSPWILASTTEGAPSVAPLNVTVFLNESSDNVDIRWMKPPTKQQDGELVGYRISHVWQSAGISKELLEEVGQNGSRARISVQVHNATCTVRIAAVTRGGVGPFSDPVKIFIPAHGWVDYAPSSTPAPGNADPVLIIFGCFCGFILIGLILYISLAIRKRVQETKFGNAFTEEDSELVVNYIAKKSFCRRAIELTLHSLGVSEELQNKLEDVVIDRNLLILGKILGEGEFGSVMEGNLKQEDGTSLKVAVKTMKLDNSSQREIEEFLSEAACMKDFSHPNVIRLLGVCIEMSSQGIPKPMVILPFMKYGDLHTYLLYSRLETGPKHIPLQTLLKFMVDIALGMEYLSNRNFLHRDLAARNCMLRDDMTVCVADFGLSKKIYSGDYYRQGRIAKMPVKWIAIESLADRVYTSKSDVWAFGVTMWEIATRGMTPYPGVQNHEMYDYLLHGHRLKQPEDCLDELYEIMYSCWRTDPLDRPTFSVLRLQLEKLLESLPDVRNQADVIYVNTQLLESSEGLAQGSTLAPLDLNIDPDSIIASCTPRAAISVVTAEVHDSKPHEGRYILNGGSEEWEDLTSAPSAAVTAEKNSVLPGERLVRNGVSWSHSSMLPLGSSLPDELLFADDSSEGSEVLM

[9] = target: Serine/threonine-protein kinase PAK 6 (Homo sapiens, UniProt Q9NQU5)
Chain of Serine/threonine-protein kinase PAK 6 (Q9NQU5 whole entry): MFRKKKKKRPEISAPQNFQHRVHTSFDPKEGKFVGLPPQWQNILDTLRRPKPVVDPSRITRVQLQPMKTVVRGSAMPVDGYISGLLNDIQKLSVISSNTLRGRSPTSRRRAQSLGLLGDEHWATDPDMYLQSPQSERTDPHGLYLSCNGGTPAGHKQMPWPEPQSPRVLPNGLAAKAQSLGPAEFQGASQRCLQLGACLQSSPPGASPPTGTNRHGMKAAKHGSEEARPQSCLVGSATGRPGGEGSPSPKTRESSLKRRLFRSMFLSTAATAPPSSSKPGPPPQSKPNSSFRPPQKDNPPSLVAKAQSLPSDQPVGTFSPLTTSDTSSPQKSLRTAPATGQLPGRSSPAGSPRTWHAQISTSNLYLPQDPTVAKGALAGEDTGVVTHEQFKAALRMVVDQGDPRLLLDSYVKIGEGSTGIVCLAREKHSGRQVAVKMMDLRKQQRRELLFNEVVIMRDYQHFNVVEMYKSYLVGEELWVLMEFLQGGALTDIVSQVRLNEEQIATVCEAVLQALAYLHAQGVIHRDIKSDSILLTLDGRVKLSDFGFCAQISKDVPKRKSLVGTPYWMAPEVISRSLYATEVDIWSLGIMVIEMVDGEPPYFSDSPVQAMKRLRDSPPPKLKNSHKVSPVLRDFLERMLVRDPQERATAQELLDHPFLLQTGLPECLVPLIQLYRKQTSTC

[10] = target: Eukaryotic peptide chain release factor GTP-binding subunit ERF3B (Homo sapiens, UniProt Q8IYD1)
Chain of Eukaryotic peptide chain release factor GTP-binding subunit ERF3B (Q8IYD1 whole entry): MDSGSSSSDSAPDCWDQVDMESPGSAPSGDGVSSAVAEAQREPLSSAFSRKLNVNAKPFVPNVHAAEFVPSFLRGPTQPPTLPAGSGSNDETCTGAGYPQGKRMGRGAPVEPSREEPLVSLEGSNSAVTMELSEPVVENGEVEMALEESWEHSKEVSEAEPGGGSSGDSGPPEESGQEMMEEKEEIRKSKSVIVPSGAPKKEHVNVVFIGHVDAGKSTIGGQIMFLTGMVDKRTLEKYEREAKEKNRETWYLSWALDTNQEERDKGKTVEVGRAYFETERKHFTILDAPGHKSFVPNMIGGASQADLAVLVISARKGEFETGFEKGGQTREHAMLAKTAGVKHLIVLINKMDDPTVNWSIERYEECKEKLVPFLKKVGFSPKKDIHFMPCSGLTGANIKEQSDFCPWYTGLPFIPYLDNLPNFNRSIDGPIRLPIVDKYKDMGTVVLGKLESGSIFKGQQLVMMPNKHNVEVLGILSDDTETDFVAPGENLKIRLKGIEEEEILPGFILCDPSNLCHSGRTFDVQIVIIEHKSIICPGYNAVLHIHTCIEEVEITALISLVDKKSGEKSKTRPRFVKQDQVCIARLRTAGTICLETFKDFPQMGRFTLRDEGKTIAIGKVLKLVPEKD

[11] = target: Dual specificity tyrosine-phosphorylation-regulated kinase 1B (Homo sapiens, UniProt Q9Y463)
Chain of Dual specificity tyrosine-phosphorylation-regulated kinase 1B (Q9Y463 whole entry): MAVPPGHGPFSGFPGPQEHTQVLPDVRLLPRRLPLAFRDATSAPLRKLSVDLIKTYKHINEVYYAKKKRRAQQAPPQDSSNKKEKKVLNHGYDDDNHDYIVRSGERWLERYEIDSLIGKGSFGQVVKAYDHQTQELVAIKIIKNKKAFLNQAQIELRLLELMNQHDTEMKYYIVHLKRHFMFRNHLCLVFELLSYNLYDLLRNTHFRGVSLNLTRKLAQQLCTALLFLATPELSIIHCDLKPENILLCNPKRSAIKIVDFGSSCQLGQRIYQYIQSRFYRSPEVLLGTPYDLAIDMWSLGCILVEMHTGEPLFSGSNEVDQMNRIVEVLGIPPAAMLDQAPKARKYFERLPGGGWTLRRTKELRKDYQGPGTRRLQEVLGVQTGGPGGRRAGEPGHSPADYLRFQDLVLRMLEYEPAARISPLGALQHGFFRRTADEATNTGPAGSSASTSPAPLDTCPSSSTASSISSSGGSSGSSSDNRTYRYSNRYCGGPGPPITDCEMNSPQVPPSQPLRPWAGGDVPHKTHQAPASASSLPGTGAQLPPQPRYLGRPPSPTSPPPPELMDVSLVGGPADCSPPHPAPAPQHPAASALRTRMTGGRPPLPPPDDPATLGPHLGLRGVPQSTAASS

[12] = target: Tyrosine-protein kinase JAK2 (Homo sapiens, UniProt O60674)
[13] = target: Ras-related C3 botulinum toxin substrate 1 (Homo sapiens, UniProt P63000)
[14] = target: T3, Dual specificity mitogen-activated protein kinase kinase 4 (Homo sapiens, UniProt P45985)
T3 sequence (P45985 whole entry): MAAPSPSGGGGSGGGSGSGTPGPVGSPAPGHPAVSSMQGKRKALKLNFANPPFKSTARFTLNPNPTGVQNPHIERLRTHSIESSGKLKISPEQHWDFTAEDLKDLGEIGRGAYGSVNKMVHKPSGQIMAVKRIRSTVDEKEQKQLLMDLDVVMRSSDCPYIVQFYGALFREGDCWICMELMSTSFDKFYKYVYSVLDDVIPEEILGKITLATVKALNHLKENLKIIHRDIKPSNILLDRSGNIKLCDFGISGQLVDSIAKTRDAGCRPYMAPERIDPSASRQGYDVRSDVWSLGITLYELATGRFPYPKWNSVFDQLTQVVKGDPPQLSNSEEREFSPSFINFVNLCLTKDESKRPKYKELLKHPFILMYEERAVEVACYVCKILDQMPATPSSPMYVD
Note: in the data inactive means no Kd found up to 30 µM.

Chain of 5'-AMP-activated protein kinase subunit gamma-2 (Q9UGJ0 whole entry): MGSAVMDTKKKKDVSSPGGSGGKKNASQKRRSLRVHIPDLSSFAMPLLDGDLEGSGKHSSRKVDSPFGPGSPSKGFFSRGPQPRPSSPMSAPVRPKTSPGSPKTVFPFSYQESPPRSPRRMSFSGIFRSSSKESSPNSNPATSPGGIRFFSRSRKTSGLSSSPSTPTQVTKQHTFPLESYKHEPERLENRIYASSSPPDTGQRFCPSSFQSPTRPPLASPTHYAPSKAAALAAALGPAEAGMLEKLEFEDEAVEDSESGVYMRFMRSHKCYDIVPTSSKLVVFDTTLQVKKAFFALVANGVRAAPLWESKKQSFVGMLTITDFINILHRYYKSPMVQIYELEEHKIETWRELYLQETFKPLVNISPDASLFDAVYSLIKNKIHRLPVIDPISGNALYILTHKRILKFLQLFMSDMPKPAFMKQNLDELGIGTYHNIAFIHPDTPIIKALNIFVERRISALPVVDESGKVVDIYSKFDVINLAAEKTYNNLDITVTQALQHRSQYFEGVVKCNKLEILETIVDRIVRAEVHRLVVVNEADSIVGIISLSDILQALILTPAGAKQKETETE

SMILES	Kd [3]	Kd [4]	Kd [5]	Kd [7]	Kd [8]	Kd [9]	Kd [11]	Kd [14]	also measured
Cc1ccc(S(=O)(=O)Nc2nc3ccccc3nc2Nc2ccc3nsnc3c2)cc1	–	–	–	> 30 µM (inactive)	> 30 µM (inactive)	–	–	–	–
C=CC(=O)N1CCC(Oc2cc3c(Nc4ccc(Cl)c(Cl)c4F)ncnc3cc2OC)CC1 [POZIOTINIB]	–	–	–	–	–	> 30 µM (inactive)	–	–	Kd [6]: > 30 µM (inactive); Kd [13]: > 30 µM (inactive)
CCN1CCN(Cc2ccc(-c3cc4c(N[C@H](C)c5ccccc5)ncnc4[nH]3)cc2)CC1 [AEE-788]	–	–	> 30 µM (inactive)	> 30 µM (inactive)	> 30 µM (inactive)	> 30 µM (inactive)	–	–	–
CN1CC[C@@H](c2c(O)cc(O)c3c(=O)cc(-c4ccccc4Cl)oc23)[C@@H]1CO	–	–	–	–	> 30 µM (inactive)	> 30 µM (inactive)	–	–	Kd [13]: > 30 µM (inactive)
Cc1cc(-c2cc(O)ccc2Cl)cc2nnc(Nc3ccc(OCCN4CCCC4)cc3)nc12	–	> 30 µM (inactive)	> 30 µM (inactive)	> 30 µM (inactive)	–	> 30 µM (inactive)	> 30 µM (inactive)	–	Kd [13]: > 30 µM (inactive)
O=C(c1ccc(F)c(F)c1Nc1ccc(I)cc1F)N1CC(O)([C@@H]2CCCCN2)C1 [COBIMETINIB]	–	–	> 30 µM (inactive)	–	–	> 30 µM (inactive)	–	> 30 µM (inactive)	Kd [13]: > 30 µM (inactive)
Cc1cn(-c2cc(NC(=O)c3ccc(C)c(Nc4nccc(-c5cccnc5)n4)c3)cc(C(F)(F)F)c2)cn1 [NILOTINIB]	–	–	–	–	–	–	–	–	Kd [13]: > 30 µM (inactive)
COC(=O)[C@@]1(O)C[C@H]2O[C@]1(C)n1c3ccccc3c3c4c(c5c6ccccc6n2c5c31)C(=O)NC4 [K-252A]	> 30 µM (inactive)	–	> 30 µM (inactive)	> 30 µM (inactive)	0.041 µM	> 30 µM (inactive)	> 30 µM (inactive)	> 30 µM (inactive)	Kd [6]: > 30 µM (inactive)
COc1cc(CCc2cc(NC(=O)c3ccc(N4C[C@@H](C)N[C@@H](C)C4)cc3)n[nH]2)cc(OC)c1 [AZD-4547]	–	–	–	> 30 µM (inactive)	> 30 µM (inactive)	> 30 µM (inactive)	–	–	Kd [6]: > 30 µM (inactive)

Second part, led by results:

Kd [3]	Kd [4]	Kd [5]	Kd [7]	Kd [8]	Kd [9]	Kd [11]	Kd [14]	SMILES	also measured
> 30 µM (inactive)	> 30 µM (inactive)	–	–	–	–	–	–	CNC(=O)c1cc(Oc2ccc(NC(=O)Nc3ccc(Cl)c(C(F)(F)F)c3)c(F)c2)ccn1 [REGORAFENIB]	Kd [1]: > 30 µM (inactive); Kd [2]: > 30 µM (inactive)
–	> 30 µM (inactive)	> 30 µM (inactive)	> 30 µM (inactive)	> 30 µM (inactive)	> 30 µM (inactive)	–	–	O=C(Nc1ccc(-c2ccnc(Nc3ccc(N4CCOCC4)cc3)n2)cc1)C1CCCN1 (stereo not drawn) [XL-019]	Kd [6]: > 30 µM (inactive)
> 30 µM (inactive)	> 30 µM (inactive)	–	–	> 30 µM (inactive)	–	> 30 µM (inactive)	–	CCCS(=O)(=O)Nc1ccc(F)c(C(=O)c2c[nH]c3ncc(-c4ccc(Cl)cc4)cc23)c1F [VEMURAFENIB]	Kd [10]: > 30 µM (inactive); Kd [12]: > 30 µM (inactive)
> 30 µM (inactive)	> 30 µM (inactive)	> 30 µM (inactive)	–	–	> 30 µM (inactive)	> 30 µM (inactive)	> 30 µM (inactive)	CC(=O)Nc1cccc(-n2c(=O)n(C3CC3)c(=O)c3c(Nc4ccc(I)cc4F)n(C)c(=O)c(C)c32)c1 [TRAMETINIB]	Kd [10]: > 30 µM (inactive); Kd [12]: > 30 µM (inactive)
–	–	–	> 30 µM (inactive)	–	> 30 µM (inactive)	> 30 µM (inactive)	–	O=C1NC(=O)/C(=C/c2ccc3nccc(-c4ccncc4)c3c2)S1 [GSK-1059615]	Kd [12]: > 30 µM (inactive)
–	> 30 µM (inactive)	> 30 µM (inactive)	–	–	> 30 µM (inactive)	> 30 µM (inactive)	> 30 µM (inactive)	CC[C@H](Nc1ncnc2[nH]cnc12)c1nc2cccc(F)c2c(=O)n1-c1ccccc1 [IDELALISIB]	Kd [1]: > 30 µM (inactive); Kd [6]: > 30 µM (inactive); Kd [2]: > 30 µM (inactive)
–	–	–	–	> 30 µM (inactive)	> 30 µM (inactive)	–	> 30 µM (inactive)	CCc1cnn2c(NCc3ccc[n+]([O-])c3)cc(N3CCCC[C@H]3CCO)nc12 [DINACICLIB]	Kd [1]: > 30 µM (inactive); Kd [2]: 0.56 µM (active)
> 30 µM (inactive)	> 30 µM (inactive)	–	–	–	–	–	–	CC[C@@H]1C(=O)N(C)c2cnc(Nc3ccc(C(=O)N[C@H]4CC[C@H](N5CCN(CC6CC6)CC5)CC4)cc3OC)nc2N1C(C)C [VOLASERTIB]	Kd [1]: > 30 µM (inactive); Kd [2]: > 30 µM (inactive); Kd [12]: > 30 µM (inactive)
> 30 µM (inactive)	–	0.023 µM (active)	> 30 µM (inactive)	–	–	> 30 µM (inactive)	> 30 µM (inactive)	Cc1ccc(NC(=O)c2ccc(CN3CC[C@H](N(C)C)C3)c(C(F)(F)F)c2)cc1Nc1nccc(-c2cncnc2)n1 [BAFETINIB]	Kd [10]: > 30 µM (inactive); Kd [12]: > 30 µM (inactive)
